Values quoted from earlier work in patent US6524619B2, “Dosage forms useful for modifying conditions and functions associated with hearing loss and/or tinnitus” (Chronorx, Inc., priority 2000, dated 2003).
Read-outs that look alike come from different tables or passages of the source. Blank lines part the entries; values can stand above or below the compound they belong to.

Columns and labels:
senile deafness = conditions: 1 microgram/day for 6 to 10 months, 12 patients suspected of abnormal bone metabolism
[1] = system: hydrogen peroxide-induced platelet aggregation
[2] = system: blood viscosity and red cell membrane lipid peroxidation; conditions: 300 mg tid 3 months, Type 2 diabetes mellitus
[3] = not given; remark: listed apart in the source
[4] = levels up to 1 mg per day
[5] = one small study
[6] = rats, oral (C14) LA
[7] = system: bovine aortic endothelial cells (BAECs); conditions: LA added before AGE exposure
[8] = humans, 200 mg oral dose
[9] = system: outer cochlear hair cells; conditions: rat, postmortem
[10] = 3 mg ingested, within 20 min
GSHPx [11] = conditions: within 30 minutes, exogenously administered
[12] = 80 mg orally
NMDA receptor = conditions: rat, iontophoresis
[13] = system: noise-induced permanent hearing threshold shifts (NIPTS); conditions: 167 mg elemental Mg^2+ daily, 2 months, 300 recruits
[14] = in vivo
peritoneal macrophages = conditions: mice
RBC GSH system = conditions: selenium treatment
tinnitus and SNHL = conditions: marginally Zn^2+ deficient elderly adults
[15] = not given; remark: listed apart in the source
GSHPx [16] = conditions: following supplementation
red cell membrane = conditions: 300 mg tid after meals for 3 months
[17] = not given; remark: listed apart in the source
[18] = 100 mg oral

Compound: C=C1/C(=C\C=C2/CCC[C@]3(C)[C@@H]([C@H](C)CCCC(C)C)CC[C@@H]23)C[C@@H](O)C[C@@H]1O [1 alpha-(OH)D3]
- hearing improvement (senile deafness): hearing improvement in six ears (four patients)

Compound: Cc1c(C)c2c(c(C)c1OC(=O)c1cccnc1)CC[C@@](C)(CCC[C@H](C)CCC[C@H](C)CCCC(C)C)O2 [Alpha-tocopherol nicotinate, alpha tocopherol nicotinate]
- inhibitory effect upon hydrogen peroxide-induced platelet aggregation [1]: greater than that of either vitamin E alone or the simultaneous use of vitamin E and nicotinic acid
- reduction of malondialdehyde (MDA) in red cell membrane [2]: 0.17 ± 0.13 nmol/L
- reduction of blood viscosity ([2]; gamma=1.5 s(−1)): −2.23 +/−2.82

Compound: CC(C)(C)[C@]1(O)CC2OC(=O)CC23C(=O)OC2OC(=O)[C@H](O)C231 (some centres unmarked) [Bilobalide]
- bioavailability coefficient (FAUC), mean (given orally during fasting): 0.79(+/−0.3)

- increase of CoQ10 in plasma ([3]; granular preparations): 168%
- elevation of CoQ10 in plasma ([3]; supplemental oil-based capsules): 178%
Compound: COC1=C(OC)C(=O)C(C/C=C(\C)CC/C=C(\C)CC/C=C(\C)CC/C=C(\C)CC/C=C(\C)CC/C=C(\C)CC/C=C(\C)CC/C=C(\C)CC/C=C(\C)CCC=C(C)C)=C(C)C1=O [CoQ10, Coenzyme Q10]

Compound: [Cr] [Cr, Chromium]
- signs of toxicity [4]: no documented signs of toxicity
- average apparent net absorption of Cr [5]: 1.8%

Compound: C[C@@H]1C(=O)O[C@H]2C[C@@]34[C@H]5C[C@@H](C(C)(C)C)[C@]36[C@@H](OC(=O)[C@@H]6O)O[C@@]4(C(=O)O5)[C@]21O [Ginkgolide A]
- bioavailability coefficient (FAUC), mean (given orally during fasting): 0.80 (+/−0.09)

- bioavailability coefficient (FAUC), mean (in vivo, po): 0.88(+/−0.21)
Compound: CC1C(=O)OC2C(O)C34C5CC(C(C)(C)C)C36C(OC(=O)C6O)OC4(C(=O)O5)C12O (centres unmarked) [Ginkgolide B]

- plasma concentration-time curve area (FAUC) relative to intravenous administration [6]: 66%
- absolute bioavailability [8]: 29.1+/−10.3%
Compound: O=C(O)CCCCC1CCSS1 (centres unmarked) [LA, 1,2-dithiolane-3-pentanoic acid]
- depletion of GSH and ascorbic acid [7]: completely prevents depletion of GSH and ascorbic acid

Compound: COc1ccc2[nH]cc(CCNC(C)=O)c2c1 [Melatonin, N-acetyl-5-methoxytryptamine]
- prolongation of hair cell activity after death compared to untreated animals [9]: up to 7 times
- serum melatonin [10]: 3561 ± 1201 pg/mL
- rise in GSHPx activity in the brain (GSHPx [11]): 2 fold
- absorption constant (ka) [12]: 1.72 h⁻¹
- elimination constant (kel) [12]: 0.87 h⁻¹
- time of peak serum melatonin after administration [12]: 60 to 150 min
- time peak serum melatonin remains stable [12]: approximately 1.5 hours
- excitatory response of the cortical striatum (NMDA receptor): potent attenuation

Compound: [Mg+2] [Mg^2+, Magnesium]
- NIPTS frequency and severity [13]: significantly more frequent and more severe in the placebo group
- maximum intestinal bulk absorption [14]: 8 mEq per meal
- excitatory response of the cortical striatum (NMDA receptor): potent attenuation

Compound: O=C(O)c1cccnc1 [Nicotinic acid, reference compound]
- inhibitory effect upon hydrogen peroxide-induced platelet aggregation [1]: no inhibitory effect

Compound: [Se] [Selenium]
- increase in GSH content in peritoneal macrophages (peritoneal macrophages): 36%
- increase in GSHPx activity in peritoneal macrophages (peritoneal macrophages): 30%
- reduction in cell-mediated oxidation of LDL and aortic atherosclerotic lesions (peritoneal macrophages): 46%
- elevation of RBC GSHPx (RBC GSH system): 64%
- reduction in the RBC oxidized GSH content (RBC GSH system): 39%
- increase in GSH content (RBC GSH system; RBC): 11%
- increase in glutathione reductase activities (RBC GSH system; RBC): 57%

Compound: [Zn+2] [Zn^2+, Zinc]
- reduction of tinnitus and SNHL (tinnitus and SNHL): about one-third
- increase of mean plasma Zn^+2 above pre-load levels ([15]; 11-fold increase in intake): 37%
- ingested Zn^+2 entering the plasma ([15]; in vivo): About 37%
- time by which gastrointestinal absorption is essentially completed ([15]; in vivo): ≤ 4 h
- excitatory response of the cortical striatum (NMDA receptor): potent attenuation

Compound: Cc1c(C)c2c(c(C)c1O)CC[C@@](C)(CCC[C@H](C)CCC[C@H](C)CCCC(C)C)O2 [alpha-tocopherol, D, alpha-tocopherol]
- GSHPx activities (GSHPx [16]): increase as much as twofold
- reduction of lipid peroxidation stress in red cell membrane (MDA) (red cell membrane): 0.17 ± 0.13 nmol

- increase in the AUC ([17]; 10-fold increase in the dose): 62 fold
- AUC relative to Enduramide ([17]; higher doses): 1.7 times
Compound: NC(=O)c1cccnc1 [standard nicotinamide, nicotinamide]

- time of second plasma peak after dosing ([18]; most of the subjects): 24 h
- mean plasma CoQ10 level peak ([18]; sixteen healthy male subjects): 1.004+/−0.37 micrograms/ml
Compound: d5-CoQ10
